Earlier results on one substance are cited in patent US20040096453A1, “Methods and compositions to treat glycosaminoglycan-associated molecular interactions” (Neurochem (International) Limited, priority 1998, published 2004).

The subject of this series is two streptococcal proteins (9,15 Kda). The conditions noted are these: basement membranes of cardiac muscle and renal tissues; Bergey & Stenson.

As to heparin, the “inhibition of binding of streptococcal proteins to basement membranes” value is on record as “completely inhibited”.
